ChEMBL document CHEMBL1201862, “PubChem BioAssay data set” (2004)
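Growth conditions: 96-well plates. Treatment: test compound, 48 hours, 5 concentrations. Analysis: linear interpolation between bracketing concentrations; unreached endpoints set to highest concentration. GI50: concentration for 50% inhibition of growth.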 Calls of active or inactive are those of the source. Rule as the data show it: active = GI50 up to about 1.1 µM and inactive = higher.

Key:
Assay in all cases: DTP human tumour cell line panel, 48 h
[1] = test system: 786-0
[2] = test system: ACHN
[3] = test system: CCRF-CEM
[4] = test system: EKVX
[5] = test system: HOP-62
[6] = test system: IGROV-1
[7] = test system: K562
[8] = test system: MDA-N
[9] = test system: NCI-H23
[10] = test system: OVCAR-5
[11] = test system: OVCAR-8
[12] = test system: RPMI-8226
[13] = test system: RXF 393
[14] = test system: SF-268
[15] = test system: SF-295
[16] = test system: SK-MEL-5
[17] = test system: SN12C
[18] = test system: TK-10
[19] = test system: UACC-257
[20] = test system: UO-31

Measured: GI50

COc1ccc(/C=C2\CCC(C)c3c2nc(N)c(C#N)c3-c2ccc(OC)c(OC)c2)cc1OC (stereo not given)
inactive: [1] 8.89 µM | [2] 15.7 µM | [3] 3.89 µM | [4] 1.36 µM | [5] 2.05 µM | [6] 15.1 µM | [7] 12 µM | [8] 33.4 µM | [9] 5.6 µM | [10] 36.9 µM | [11] 9.82 µM | [12] 3.65 µM | [13] 4.01 µM | [14] 52.7 µM | [15] 6 µM | [16] 4.84 µM | [17] > 100 µM | [18] 10.8 µM | [19] 1.96 µM | [20] 3.16 µM

S=C1CSc2c(cnc3ccccc23)N1
inactive: [1] > 100 µM | [2] > 100 µM | [3] > 100 µM | [4] 76.4 µM | [5] > 100 µM | [6] > 100 µM | [7] > 100 µM | [8] > 100 µM | [9] > 100 µM | [10] > 100 µM | [11] 65.9 µM | [12] > 100 µM | [13] 20 µM | [14] > 100 µM | [15] 52.2 µM | [16] > 100 µM | [17] > 100 µM | [18] 35.1 µM | [19] > 100 µM | [20] 65.6 µM

C=CC1(c2ccc(Cl)c(Cl)c2)OCCO1
inactive: [1] > 100 µM | [2] > 100 µM | [3] > 100 µM | [4] > 100 µM | [5] 10.8 µM | [6] > 100 µM | [7] 27.7 µM | [8] > 100 µM | [9] 45.8 µM | [10] > 100 µM | [11] > 100 µM | [12] > 100 µM | [13] > 100 µM | [14] > 100 µM | [15] > 100 µM | [16] > 100 µM | [17] > 100 µM | [18] > 100 µM | [19] > 100 µM | [20] > 100 µM

Cc1cc(S(=O)(=O)NC2=Nc3ccccc3C(c3ccccc3)N2)c(S)cc1Cl (stereo not given)
inactive: [1] 8.2 µM | [2] > 100 µM | [3] 32.6 µM | [4] > 100 µM | [5] > 100 µM | [6] > 100 µM | [7] 87.9 µM | [8] 78 µM | [9] > 100 µM | [10] > 100 µM | [11] > 100 µM | [12] 63.7 µM | [13] 48.2 µM | [14] 39 µM | [15] 31.5 µM | [16] > 100 µM | [17] 50.7 µM | [18] > 100 µM | [19] > 100 µM | [20] 24.9 µM

Cc1c(O)nc(/C=C/C(=O)O)nc1C(=O)O
inactive: [1] > 100 µM | [2] > 100 µM | [3] > 100 µM | [4] > 100 µM | [5] > 100 µM | [6] > 100 µM | [7] > 100 µM | [8] > 100 µM | [9] > 100 µM | [10] > 100 µM | [11] > 100 µM | [12] > 100 µM | [13] > 100 µM | [14] > 100 µM | [15] > 100 µM | [16] > 100 µM | [17] > 100 µM | [18] > 100 µM | [19] > 100 µM | [20] > 100 µM
